According to US10874743B2, “IRAK degraders and uses thereof” (Kymera Therapeutics, Inc., priority 2017, dated 2020):
pEC50: −log10 of the molar value.

How the values were obtained:
[1] = target: T1, IRAK4 (Homo sapiens, UniProt Q9NWZ3); assay: OCI-LY-10 MSD assay for IRAK4 DC50; format: cell-based; design: endogenous in cells; host or cells: OCI-LY10; conditions: OCI-LY10 cells, 4 hr incubation, concentration required to degrade 50% of protein
T1 sequence (Q9NWZ3 1-460): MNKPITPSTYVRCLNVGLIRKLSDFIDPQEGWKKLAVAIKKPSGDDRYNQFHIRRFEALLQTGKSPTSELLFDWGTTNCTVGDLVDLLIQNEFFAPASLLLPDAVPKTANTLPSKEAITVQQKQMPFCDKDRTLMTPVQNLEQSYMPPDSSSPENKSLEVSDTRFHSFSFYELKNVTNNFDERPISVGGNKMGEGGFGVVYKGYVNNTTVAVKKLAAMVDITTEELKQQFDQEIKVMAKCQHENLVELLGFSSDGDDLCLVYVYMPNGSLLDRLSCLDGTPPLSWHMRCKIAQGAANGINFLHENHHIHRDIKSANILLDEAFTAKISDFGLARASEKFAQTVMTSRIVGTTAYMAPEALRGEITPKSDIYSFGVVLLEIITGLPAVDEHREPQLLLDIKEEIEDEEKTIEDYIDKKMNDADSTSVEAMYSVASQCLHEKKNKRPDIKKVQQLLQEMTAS
How it was run: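 OCI-Ly10 cells were exposed to compound for 4 hr across a 3-fold, 8-point dilution series. Lysates were made in RIPA buffer, and IRAK4 remaining was measured by MSD sandwich immunoassay with anti-IRAK4 capture and detection antibodies. DC50 was taken from a four-parameter logistic fit.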

[2] = test system: OCI-LY10 cells; assay: OCI-LY-10 CTG cell viability assay (EC50); format: cell-based; conditions: Homo sapiens, 96 h, CellTiter-Glo cell viability, 4 days incubation, top concentration 10 μM, read-out: OCI-LY10 IRAK4 EC50
How it was run: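 OCI-LY10 cells were exposed to a 9-dose, 1:3 series (top 10 μM, 0.2% DMSO) for 4 days at 37 °C. Viability was measured by CellTiter-Glo luminescence, and EC50 came from a three-parameter logistic fit.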

Compound	DC50 [1] [nM]	pEC50 [2]
Cn1c(=O)n(C2CCC(=O)NC2=O)c2cccc(CCCCOCCCCNCc3ccc(-n4cc(NC(=O)c5coc(-c6ccnc(NCC7CC7)c6)n5)c(C(F)F)n4)cc3)c21 (centres unmarked) [I-523]	50 to 100	> 7.30
CN(CC(=O)N(C)CC(=O)N(C)CC(=O)N(C)CCCc1cccc2c1n(C)c(=O)n2C1CCC(=O)NC1=O)Cc1nn(C)cc1NC(=O)c1coc(-c2ccnc(NCC(F)(F)F)c2)n1 (centres unmarked) [I-525]	> 1000	< 6.00
O=C1CCC(N2Cc3cc(CNC(=O)NCCOCCOCCNCc4ccc(-n5cc(NC(=O)c6coc(-c7ccnc(NCC8CC8)c7)n6)c(C(F)F)n5)cc4)ccc3C2=O)C(=O)N1 (centres unmarked) [I-529]	50 to 100	7.00 to 7.30
Cn1c(=O)n(C2CCC(=O)NC2=O)c2cccc(CCCOCCNCc3ccc(-n4cc(NC(=O)c5coc(-c6ccnc(NCC7CC7)c6)n5)c(C(F)F)n4)cc3)c21 (centres unmarked) [I-530]	< 50	> 7.30
Cn1c(=O)n(C2CCC(=O)NC2=O)c2ccc(CCCOCCNCc3ccc(-n4cc(NC(=O)c5coc(-c6ccnc(NCC(F)(F)F)c6)n5)c(C(F)F)n4)cc3)cc21 (centres unmarked) [I-532]	< 50	6.00 to 6.30
Cn1c(=O)n(C2CCC(=O)NC2=O)c2ccc(CCCOCCCNCc3ccc(-n4cc(NC(=O)c5coc(-c6ccnc(NCC(F)(F)F)c6)n5)c(C(F)F)n4)cc3)cc21 (centres unmarked) [I-534]	< 50	< 6.00
Cn1c(=O)n(C2CCC(=O)NC2=O)c2cccc(CCCOCCCNCc3ccc(-n4cc(NC(=O)c5coc(-c6ccnc(NCC(F)(F)F)c6)n5)c(C(F)F)n4)cc3)c21 (centres unmarked) [I-535]	< 50	< 6.00
Cn1c(=O)n(C2CCC(=O)NC2=O)c2cccc(CCCNCC3COC4C(CNCc5ccc(-n6cc(NC(=O)c7coc(-c8ccnc(NCC(F)(F)F)c8)n7)c(C(F)F)n6)cc5)COC34)c21 (centres unmarked) [I-536]	< 50	> 7.30
Cn1c(=O)n(C2CCC(=O)NC2=O)c2ccc(CCCNCC3COC4C(CNCc5ccc(-n6cc(NC(=O)c7coc(-c8ccnc(NCC9CC9)c8)n7)c(C(F)F)n6)cc5)COC34)cc21 (centres unmarked) [I-537]	< 50	> 7.30
Cn1c(=O)n(C2CCC(=O)NC2=O)c2ccc(CCCOCCOCCNCc3ccc(-n4cc(NC(=O)c5coc(-c6ccnc(NCC7CC7)c6)n5)c(C(F)F)n4)cc3F)cc21 (centres unmarked) [I-539]	500 to 1000	> 7.30
Cn1c(=O)n(C2CCC(=O)NC2=O)c2ccc(CNCCCCCNCc3ccc(-n4cc(NC(=O)c5coc(-c6ccnc(NCC7CC7)c6)n5)c(C(F)F)n4)cc3)cc21 (centres unmarked) [I-542]	< 50	> 7.30
Cn1c(=O)n(C2CCC(=O)NC2=O)c2ccc(CNC(=O)COCCNCc3ccc(-n4cc(NC(=O)c5coc(-c6ccnc(NCC7CC7)c6)n5)c(C(F)F)n4)cc3)cc21 (centres unmarked) [I-543]	< 50	> 7.30
Cn1c(=O)n(C2CCC(=O)NC2=O)c2ccc(CNC(=O)OCCCNCc3ccc(-n4cc(NC(=O)c5coc(-c6ccnc(NCC7CC7)c6)n5)c(C(F)F)n4)cc3)cc21 (centres unmarked) [I-545]	< 50	> 7.30
O=C1CCC(n2c(=O)oc3c(CCCOCCCNCc4ccc(-n5cc(NC(=O)c6coc(-c7ccnc(NCC8CC8)c7)n6)c(C(F)F)n5)cc4)cccc32)C(=O)N1 (centres unmarked) [I-548]	< 50	> 7.30
O=C1CCC(n2c(=O)oc3cc(CCCOCCCNCc4ccc(-n5cc(NC(=O)c6coc(-c7ccnc(NCC8CC8)c7)n6)c(C(F)F)n5)cc4)ccc32)C(=O)N1 (centres unmarked) [I-549]	< 50	> 7.30
O=C1CCC(n2c(=O)oc3cc(CCCOCCOCCNCc4ccc(-n5cc(NC(=O)c6coc(-c7ccnc(NCC8CC8)c7)n6)c(C(F)F)n5)cc4)ccc32)C(=O)N1 (centres unmarked) [I-550]	< 50	> 7.30

Compound	DC50 [1] [nM]	pEC50 [2]
O=C1CCC(n2c(=O)oc3c(CCCOCCOCCNCc4ccc(-n5cc(NC(=O)c6coc(-c7ccnc(NCC8CC8)c7)n6)c(C(F)F)n5)cc4)cccc32)C(=O)N1 (centres unmarked) [I-551]	< 50	> 7.30
O=C1CCC(n2c(=O)n(CCOCCOCCNCc3ccc(-n4cc(NC(=O)c5coc(-c6ccnc(NCC7CC7)c6)n5)c(C(F)F)n4)cc3)c3ccccc32)C(=O)N1 (centres unmarked) [I-552]	< 50	> 7.30
CN[C@@H](C)C(=O)N[C@H](C(=O)N1CCC[C@H]1c1nc(C(=O)c2cccc(OCCOCCOCCOCCOCCOCCNCc3ccc(-n4cc(NC(=O)c5coc(-c6ccnc(NCC7CC7)c6)n5)c(C(F)F)n4)cc3)c2)cs1)C1CCCCC1 [I-553]	500 to 1000	< 6.00
CN[C@@H](C)C(=O)N[C@H](C(=O)N1CCC[C@H]1c1nc(C(=O)c2cccc(OCCOCCOCCOCCOCCNCc3ccc(-n4cc(NC(=O)c5coc(-c6ccnc(NCC7CC7)c6)n5)c(C(F)F)n4)cc3)c2)cs1)C1CCCCC1 [I-555]	500 to 1000	< 6.00
CN[C@@H](C)C(=O)N[C@H](C(=O)N1CCC[C@H]1c1nc(C(=O)c2cccc(OCCOCCOCCNCc3ccc(-n4cc(NC(=O)c5coc(-c6ccnc(NCC7CC7)c6)n5)c(C(F)F)n4)cc3)c2)cs1)C1CCCCC1 [I-556]	500 to 1000	< 6.00
O=C1CCC(N2Cc3cc(CNC(=O)OCCNCc4ccc(-n5cc(NC(=O)c6coc(-c7ccnc(NCC8CC8)c7)n6)c(C(F)F)n5)cc4)ccc3C2=O)C(=O)N1 (centres unmarked) [I-558]	< 50	> 7.30
CN1CCN(C(=O)c2nn(-c3ccc(CNCCCCOCCCCc4ccc5c(c4)n(C)c(=O)n5C4CCC(=O)NC4=O)cc3)cc2NC(=O)c2coc(-c3ccnc(NCC(F)(F)F)c3)n2)CC1 (centres unmarked) [I-559]	> 1000	6.00 to 6.30
Cn1c(=O)n(C2CCC(=O)NC2=O)c2ccc(N3CCN(CCOCCNCc4ccc(-n5cc(NC(=O)c6coc(-c7ccnc(NCC(F)(F)F)c7)n6)c(C(N)=O)n5)cc4)CC3)cc21 (centres unmarked) [I-564]	100 to 500	< 6.00
NC(=O)c1nn(-c2ccc(CNCCCOCCCc3ccc4c(c3)oc(=O)n4C3CCC(=O)NC3=O)cc2)cc1NC(=O)c1coc(-c2ccnc(NCC(F)(F)F)c2)n1 (centres unmarked) [I-567]	< 50	6.00 to 6.30
NC(=O)c1nn(-c2ccc(CNCCOCCOCCCc3ccc4c(c3)oc(=O)n4C3CCC(=O)NC3=O)cc2)cc1NC(=O)c1coc(-c2ccnc(NCC(F)(F)F)c2)n1 (centres unmarked) [I-568]	< 50	6.30 to 7.00
Cn1c(=O)n(C2CCC(=O)NC2=O)c2ccc(CCCN3CCO[C@H](CNCc4ccc(-n5cc(NC(=O)c6coc(-c7ccnc(NCC(F)(F)F)c7)n6)c(C(N)=O)n5)cc4)C3)cc21 (some centres unmarked) [I-572]	< 50	6.30 to 7.00
Cn1c(=O)n(C2CCC(=O)NC2=O)c2ccc(CCCN3CCO[C@@H](CNCc4ccc(-n5cc(NC(=O)c6coc(-c7ccnc(NCC8CC8)c7)n6)c(C(F)F)n5)cc4)C3)cc21 (some centres unmarked) [I-574]	< 50	> 7.30
Cn1c(=O)n(C2CCC(=O)NC2=O)c2ccc(CCCN3CCO[C@H](CCNCc4ccc(-n5cc(NC(=O)c6coc(-c7ccnc(NCC(F)(F)F)c7)n6)c(C(N)=O)n5)cc4)C3)cc21 (some centres unmarked) [I-576]	< 50	> 7.30
NC(=O)c1nn(-c2ccc(CNCCOCCOCCOC(=O)NCc3ccc4c(c3)CN(C3CCC(=O)NC3=O)C4=O)cc2)cc1NC(=O)c1coc(-c2ccnc(NCC(F)(F)F)c2)n1 (centres unmarked) [I-579]	100 to 500	< 6.00
O=C1CCC(N2C[C@H](c3ccc(C#CCCOCCCNCc4ccc(-n5cc(NC(=O)c6coc(-c7ccnc(NCC8CC8)c7)n6)c(C(F)F)n5)cc4)cc3)OC2=O)C(=O)N1 (some centres unmarked) [I-580]	50 to 100	> 7.30
